Experimental data: PubChem BioAssay (NCI)
Where “and” joins values, the source holds several entries; their conditions need not be identical. Identical values can stand only once.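 Five compound concentrations were applied to cells in 96-well plates for 48 hours; endpoints were derived by simple linear interpolation of the resulting dose-response curve. Here, GI50 denotes the concentration required for 50% inhibition of growth. The concentration for full growth arrest is given as TGI.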

Tests used:
Experiment in all cases: inhibition of tumour cell growth, NCI panel, 48 h
SK-MEL-5 melanoma = system: SK-MEL-5 melanoma
ACHN renal = system: ACHN renal
SF-539 CNS = system: SF-539 CNS
SNB-19 CNS = system: SNB-19 CNS
RPMI-8226 leukemia = system: RPMI-8226 leukemia
HT29 colon = system: HT29 colon
SR leukemia = system: SR leukemia
M14 melanoma = system: M14 melanoma
T-47D breast = system: T-47D breast
EKVX NSCLC = system: EKVX NSCLC

In the case of `COc1ccc(-c2oc3c(OC)c(OC)c(OC)c(O)c3c(=O)c2OC)cc1OC`, the TGI (SK-MEL-5 melanoma) is reported as 41.7 µM, the TGI (ACHN renal) is reported as over 100 µM and the TGI (SF-539 CNS) is reported as over 71.4 µM. It also gave a TGI (SNB-19 CNS) of over 100 µM, a TGI (RPMI-8226 leukemia) of 59.3 µM and a TGI (HT29 colon) of over 78.2 µM. The TGI (SR leukemia) was 45.1 µM, the TGI (M14 melanoma) was over 100 µM and the TGI (T-47D breast) was 25.6 µM. It also gave a TGI (EKVX NSCLC) of over 100 µM.

`C=CCN(/C=C1/C(=O)O[C@H](COC)[C@@]2(C)C1=C(O)C(=O)C1=C2[C@H](OC(C)=O)C[C@]2(C)C(=O)CC[C@@H]12)CC=C` showed a GI50 (SK-MEL-5 melanoma) of 3.16 µM, a TGI (SK-MEL-5 melanoma) of over 10 µM and a GI50 (ACHN renal) of 1.53 µM. For the same molecule, the TGI (ACHN renal) was over 10 µM, the GI50 (SF-539 CNS) was 0.692 µM and the TGI (SF-539 CNS) was over 5.24 µM. It also gave a GI50 (SNB-19 CNS) of 3.45 µM, a TGI (SNB-19 CNS) of over 10 µM and a GI50 (RPMI-8226 leukemia) of 2 µM. For the same molecule, the TGI (RPMI-8226 leukemia) was over 10 µM, the GI50 (HT29 colon) was 0.422 µM and the TGI (HT29 colon) was over 10 µM. For the same molecule, the GI50 (SR leukemia) was 0.708 µM, the TGI (SR leukemia) was over 10 µM and the GI50 (M14 melanoma) was 2.95 µM. The TGI (M14 melanoma) was over 10 µM, the GI50 (T-47D breast) was 0.0992 µM and the TGI (T-47D breast) was over 3.78 µM. The GI50 (EKVX NSCLC) was 0.828 µM and the TGI (EKVX NSCLC) was over 10 µM.

In the case of `C=C1SC(=Nc2c(C)cc(C)cc2C)N(C(=O)c2sc3ccccc3c2Cl)C12CCCCC2`, the GI50 (SK-MEL-5 melanoma) is reported as over 100 µM, the TGI (SK-MEL-5 melanoma) is reported as over 100 µM and the GI50 (ACHN renal) is reported as over 100 µM. It also gave a TGI (ACHN renal) of over 100 µM, a GI50 (SF-539 CNS) of over 100 µM and a TGI (SF-539 CNS) of over 100 µM. It also gave a GI50 (SNB-19 CNS) of over 100 µM, a TGI (SNB-19 CNS) of over 100 µM and a GI50 (RPMI-8226 leukemia) of 21.6 µM. It also gave a TGI (RPMI-8226 leukemia) of over 100 µM, a GI50 (HT29 colon) of 58.5 µM and a TGI (HT29 colon) of over 100 µM. For the same molecule, the GI50 (SR leukemia) was 13 µM, the TGI (SR leukemia) was over 100 µM and the GI50 (M14 melanoma) was over 100 µM. The TGI (M14 melanoma) was over 100 µM, the GI50 (T-47D breast) was 9.69 µM and the TGI (T-47D breast) was over 100 µM. It also gave a GI50 (EKVX NSCLC) of 38.6 µM and a TGI (EKVX NSCLC) of over 100 µM.

For `CC1(C)CC[C@H](Nc2ncc(C(F)(F)F)c(-c3c[nH]c4c(P(C)(C)=O)c(C#N)ccc34)n2)CN1`, the GI50 (SK-MEL-5 melanoma) was 0.0666 µM, the TGI (SK-MEL-5 melanoma) was 2.27 µM and the GI50 (ACHN renal) was 0.0721 µM. The TGI (ACHN renal) was 9.27 µM, the GI50 (SF-539 CNS) was 0.245 µM and the TGI (SF-539 CNS) was 4.73 µM. For the same molecule, the GI50 (SNB-19 CNS) was 0.0439 µM, the TGI (SNB-19 CNS) was over 54.3 µM and the GI50 (RPMI-8226 leukemia) was under 0.01 µM. For the same molecule, the TGI (RPMI-8226 leukemia) was 3.43 µM, the GI50 (HT29 colon) was under 0.0259 µM and the TGI (HT29 colon) was over 27.7 µM. For the same molecule, the GI50 (SR leukemia) was under 0.01 µM, the GI50 (M14 melanoma) was 0.0759 µM and the TGI (M14 melanoma) was 6.69 µM. The GI50 (T-47D breast) was 0.0255 µM, the TGI (T-47D breast) was 5.84 µM and the GI50 (EKVX NSCLC) was under 0.0113 µM. It also gave a TGI (EKVX NSCLC) of 9.27 µM.

`Cc1ccc(S(=O)(=O)NCCNC2=CC(=O)c3nc4ccccc4c4ccnc2c34)cc1` was tested, and the GI50 (SK-MEL-5 melanoma) was 14.6 µM, the TGI (SK-MEL-5 melanoma) was 33.9 µM and the GI50 (ACHN renal) was 22.3 µM. The TGI (ACHN renal) was 97 µM, the GI50 (SF-539 CNS) was 19.1 µM and the TGI (SF-539 CNS) was 38.3 µM. The GI50 (SNB-19 CNS) was 13.8 µM, the TGI (SNB-19 CNS) was 33.9 µM and the GI50 (RPMI-8226 leukemia) was 10.5 µM. For the same molecule, the TGI (RPMI-8226 leukemia) was over 100 µM, the GI50 (HT29 colon) was 32.5 µM and the TGI (HT29 colon) was 79.1 µM. The GI50 (SR leukemia) was 4.77 µM, the TGI (SR leukemia) was over 100 µM and the GI50 (M14 melanoma) was 15.7 µM. For the same molecule, the TGI (M14 melanoma) was 58.2 µM, the GI50 (T-47D breast) was 25.6 µM and the TGI (T-47D breast) was 95.9 µM. The GI50 (EKVX NSCLC) was 32.3 µM and the TGI (EKVX NSCLC) was 89 µM.

In the case of `O=C1c2ccc([N+](=O)[O-])cc2-c2c1c1ccccc1c(=O)n2CCCNCCCNCCCn1c2c(c3ccc([N+](=O)[O-])cc3c1=O)C(=O)c1ccccc1-2`, the GI50 (SK-MEL-5 melanoma) is reported as 3.07 µM, the TGI (SK-MEL-5 melanoma) is reported as 20.9 µM and the GI50 (ACHN renal) is reported as 4.26 µM. It also gave a TGI (ACHN renal) of 15.9 µM, a GI50 (SF-539 CNS) of 1.96 µM and a TGI (SF-539 CNS) of 7 µM. For the same molecule, the GI50 (SNB-19 CNS) was 0.985 µM, the TGI (SNB-19 CNS) was 6.54 µM and the GI50 (RPMI-8226 leukemia) was 0.258 µM. It also gave a TGI (RPMI-8226 leukemia) of 0.82 µM, a GI50 (HT29 colon) of 0.182 µM and a TGI (HT29 colon) of 1.48 µM. It also gave a GI50 (SR leukemia) of 0.0306 µM, a TGI (SR leukemia) of 2.83 µM and a GI50 (M14 melanoma) of 13.6 µM. The TGI (M14 melanoma) was 33.9 µM, the GI50 (T-47D breast) was 2.23 µM and the TGI (T-47D breast) was 7.95 µM. It also gave a GI50 (EKVX NSCLC) of 8.76 µM and a TGI (EKVX NSCLC) of 32.1 µM.

`COc1cc(/C=C2\CCC/C(=C\c3cc(OC)c(O)c(OC)c3)C2=O)cc(OC)c1O` was tested, and the GI50 (SK-MEL-5 melanoma) was 2.83 µM, the TGI (SK-MEL-5 melanoma) was 75 µM and 19.6 µM and the GI50 (ACHN renal) was 1.85 µM. The TGI (ACHN renal) was 2.31 µM and 3.94 µM, the TGI (SF-539 CNS) was over 100 µM and the GI50 (SNB-19 CNS) was 3.61 µM. The TGI (SNB-19 CNS) was 75 µM and > 100 µM, the TGI (RPMI-8226 leukemia) was 7.54 µM and the GI50 (HT29 colon) was 3.8 µM. The TGI (HT29 colon) was 38 µM and > 100 µM, the GI50 (SR leukemia) was 1.73 µM and the TGI (SR leukemia) was 75 µM and 28.8 µM. For the same molecule, the GI50 (M14 melanoma) was 2.9 µM, the TGI (M14 melanoma) was 75 µM and 69.4 µM and the TGI (T-47D breast) was 75 µM. For the same molecule, the GI50 (EKVX NSCLC) was 5.14 µM and the TGI (EKVX NSCLC) was 75 µM and > 100 µM.
